These results are taken from patent US20230339968A1, “KRAS Gl2C INHIBITORS” (Eli Lilly and Company, priority 2019, published 2023).

Read-outs that look alike come from different tables or passages of the source.

Experiment [1] concerns H23 (lung). Briefly: CellTiterGlo Cell Proliferation Assay (2D), H23. The class given is cell-based. Particulars: 96 hours. The method, then: (§1) The purpose of this assay is to evaluate the growth of KRas G12C mutant tumor lines following treatment with a test compound. A panel of tumor cell lines harboring KRas G12C or other KRas mutations are collected (Table 25). All cell lines are from ATCC or other sources indicated.
(§2) Typically cells are cultured in RPMI1640 or Dulbecco's modified Eagle's medium (DMEM, GIBCO) supplemented with 10% FBS (GIBCO, Invitrogen). […] The cells are treated with compound for 96 hours, and then are analyzed for viability using the CellTiterGlo® Luminescent Cell Viability Assay® (Promega #G7572 for 2D) according to manufacturer's instructions and an EnVision™ plate reader. Nonlinear regression and sigmoidal dose-response curves are used to calculate the half maximal inhibitory concentration (IC50) with GraphPad Prism 4® software.
A general note: ATP-based viability assays read luminescence as a measure of living cells.

Experiment [2] concerns LU99 (lung). Briefly: CellTiterGlo Cell Proliferation Assay (2D), LU99. Particulars: Homo sapiens, Lu-99, 96 hours. The class given is cell-based. As for the experimental part:
as §1, §2

In experiment [3] the test system is SW837 (rectum). Briefly: CellTiterGlo Cell Proliferation Assay (2D), SW837. The class given is cell-based. Particulars: Homo sapiens, 96 hours. The method, then:
as §1, §2

Experiment [4] concerns LXFA-983L (lung). Nature of the experiment: CellTiterGlo Cell Proliferation Assay (2D), LXFA-983L. The format is cell-based. Conditions: 96 hours. The method, then:
as §1, §2

For experiment [5], the system named is SW756 (cervix). Briefly: CellTiterGlo Cell Proliferation Assay (2D), SW756. Particulars: Homo sapiens, 96 hours. The format is cell-based. As for the experimental part: as §1, §2
The test system of experiment [6] is KYSE-410 (esoph). Briefly: CellTiterGlo Cell Proliferation Assay (2D), KYSE-410. The format is cell-based. Particulars: Homo sapiens, 96 hours. The method, then:
as §1, §2

Experiment [7] has as its system H1373 (lung). Nature of the experiment: CellTiterGlo Cell Proliferation Assay (2D), H1373. The class given is cell-based. Particulars: Homo sapiens, NCI-H1373, 96 hours. As for the experimental part: as §1, §2
For experiment [8], the system named is SW1573 (lung). Briefly: CellTiterGlo Cell Proliferation Assay (2D), SW1573. The class given is cell-based. Conditions: Homo sapiens, 96 hours. The method, then:
as §1, §2

The subject of experiment [9] is A549 (lung). Nature of the experiment: CellTiterGlo Cell Proliferation Assay (2D), A549 (KRas G12S). The format is cell-based. Conditions: Homo sapiens; for inhibition at 10 µM: read-out: % inh. @ 10 μM. As for the experimental part: as §1, §2
In experiment [10] the test system is pERK. Nature of the experiment: In vivo pharmacodynamic effect, pERK Meso Scale Discovery ELISA of tumor lysates, lung cancer H358 xenograft model. Set-up: species or system mouse. Conditions: for inhibition at 12.5 mg/kg / inhibition at 25 mg/kg / inhibition at 50 mg/kg / inhibition at 100 mg/kg / inhibition at 30 mg/kg: Mus musculus; for inhibition at 12.5 mg/kg / inhibition at 25 mg/kg / inhibition at 50 mg/kg / inhibition at 100 mg/kg: NCI-H358, po, read-out: % Inhibition of pERK; for inhibition at 30 mg/kg: read-out: % inhibition of pERK. As for the experimental part: The purpose of these assays is to evaluate in vivo target inhibition of an orally administered test compound. Human lung cancer H358 cells, or pancreatic cancer MiaPaca-2 cells, are implanted into nude mice xenograft tumor models. H358 or MiaPaca-2 cells (10×106 in a 1:1 Matrigel® mix, 0.2 mL total volume) are implanted by subcutaneous injection in hind leg of nude female mice (Harlan Laboratories). […] Treatment is initiated with oral administration (gavage) of a test compound or vehicle (20% Captisol®, 25 mM phosphate, pH 2.0 in 0.2 mL) when the tumor size reaches approximately 300 mg.
For in vivo target inhibition and PD analysis, tumors are ground by mortar and pestle on dry ice and tumor fragments are added to 800 μL of lysis buffer containing 1% Triton™ X-100, 25 mM Tris pH7.5, 150 mM sodium chloride, 1 mM EDTA, and 1 mM EGTA with Halt protease and phosphatase inhibitor cocktail (Thermo Scientific, cat. no. 1861281) in lysing matrix D tubes (MP Biomedical®, cat. no. 6913-500) with one additional large bead (MP Biomedical® ¼″ ceramic sphere bead cat. no. 6540-412) per tube. Tumor fragments are homogenized in a Thermo Bio101® fast prep (FP120) at setting 4 for […] while cold for a total of 2 times. Lysates are spun at 14,000 rpm for 10 minutes at 4° C. to clarify. Protein estimation is done on the lysate supernatant using a BioRad Dc® protein assay and lysates are diluted in complete lysis/binding buffer from the Ras GTPase Chemi ELISA Kit® (Active Motif, cat. no. 52097). The active KRas ELISA is performed as follows: glutathione-coated ELISA wells are incubated with diluted RAF1-GST in complete lysis/binding buffer for 1 hour at 4° C. with gentle agitation. Wells are washed 3 times with wash buffer and 100 μg of lysates are added to each well and incubated at ambient temperature for 1 hour with mild agitation. The wells are washed an additional 3 times, then primary antibody, diluted in antibody binding buffer, is added to each well. The plates are incubated for 1 hour. The wells are washed 3 more times before adding HRP-conjugated secondary antibody, diluted in antibody binding buffer, to each well. The plates are incubated at ambient temperature for 1 hour. ELISA wells are washed 4 times, chemiluminescent reagent is added and then luminescence is read. For pERK Meso Scale Discovery ELISA, 25 μg of protein containing 0.1% SDS is used; Meso Scale Discovery Whole Cell Lysate Kit for pERK is provided by Meso Scale Discovery.
The purpose of this assay is to evaluate the dose dependent in vivo target inhibition and pharmacodynamic effects in a lung cancer model. The test compound is dosed in lung cancer H358 mouse xenograft model at a dose range from 12.5 to 100 mg/kg. The tumor samples are collected 8 hours post a single dose. The tumor lysates are prepared and the inhibition of pERKand active KRas is measured as described above.
The purpose of this assay is to evaluate the time dependent in vivo target inhibition and pharmacodynamic effects in a lung cancer model. […] After a single dose, the tumor samples are harvested at 2, 4, 8, 12 and 24 hour post doing. The tumor lysates are prepared and the inhibition of pERK and active KRas is measured as described above.

Setting [11] is: A549 (lung, KRas G12S), 2D, 96 hours.
[12] abbreviates: A549 (lung, KRas G12S), 2D, 96 hours, 10 μM.

In the case of `C=CC(=O)N1CCN2C(=O)c3cc(F)c(-c4cccc5sc(N)c(C#N)c45)c(Cl)c3OCC[C@H]2C1` [Example 34, 4-[(13aS)-10-Chloro-8-fluoro-6-oxo-2-prop-2-enoyl-1,3,4,12,13,13a-hexahydropyrazino[2,1-d][1,5]benzoxazocin-9-yl]-2-amino-benzothiophene-3-carbonitrile], the IC50 – broadly, the concentration needed to halve the response being measured – is 26 nM in experiment [1]; 201 nM in experiment [2]; 200 nM in [3]; > 10000 nM in experiment [4]; 1080 nM in experiment [5]; > 10000 nM in experiment [6]. Moreover, the figures for the IC50 in [7], in [8] and in [9] (setting [11]) were 6740 nM, 7820 nM and > 10000 nM, respectively. For the same molecule, the inhibition at 10 µM is 96.8% in experiment [1]; 91.9% in [2]; 59.6% in experiment [3]; 68.8% in experiment [4]; 56.9% in [5]; 63.2% in experiment [6]. Further, the inhibition at 10 µM in experiment [7] is 67.7%; in [8] it was 60.8%; in [9] (setting [12]), 18.8%. Besides, in [10] (8 h, H358 xenograft mice, single oral dose 12.5 mg/kg, 8 hours), the inhibition at 12.5 mg/kg came to 26.9%. Besides, in experiment [10] (8 h, H358 xenograft mice, single oral dose 25 mg/kg, 8 hours), the inhibition at 25 mg/kg was found to be 53.2%. For the same molecule, the inhibition at 50 mg/kg in [10] (8 h, H358 xenograft mice, single oral dose 50 mg/kg, 8 hours) is 54%. In [10] (8 h, H358 xenograft mice, single oral dose 100 mg/kg, 8 hours), the inhibition at 100 mg/kg stood at 74.8%.

As to `C=CC(=O)N1CCN2C(=O)c3cc(F)c(-c4ccc(F)c5sc(N)c(C#N)c45)c(Cl)c3OC[C@H]2C1` [Example 36, 4-[(4aR)-7-Chloro-9-fluoro-11-oxo-3-prop-2-enoyl-2,4,4a,5-tetrahydro-1H-pyrazino[2,1-c][1,4]benzoxazepine-8-yl]-2-amino-7-fluoro-benzothiophene-3-carbonitrile], the 50% inhibitory concentration (IC50) in experiment [1] is 100 nM; in [2], 349 nM; in experiment [3], 570 nM; in experiment [4] it was > 10000 nM; in experiment [5] it was 2520 nM; in experiment [6], > 10000 nM. The 50% inhibitory concentration (IC50) was determined as 5490 nM in experiment [7], 9350 nM in experiment [8] and 9500 nM in [9] (setting [11]). Moreover, the inhibition at 10 µM stood at 96.7% in [1]; 99.1% in experiment [2]; 58.7% in experiment [3]; 88% in [4]; 58.1% in experiment [5]; 43.1% in experiment [6]. Also, the inhibition at 10 µM was 82.6% in [7], 54.3% in experiment [8] and 62.1% in experiment [9] (setting [12]). Further, the “% inhibition of pERK” value in [10] (H358 model, single dose 30 mg/kg, 8 h, 30 mg/kg) is 86.9%. Besides, the inhibition at 30 mg/kg was found to be 79.7% in experiment [10] (NCI-H358, 2 h, H358 model, single dose 30 mg/kg, 2 h); 84.2% in experiment [10] (NCI-H358, 4 h, H358 model, single dose 30 mg/kg, 4 h); 82.6% in [10] (NCI-H358, 8 h, H358 model, single dose 30 mg/kg, 8 h); 48.8% in experiment [10] (NCI-H358, 24 h, H358 model, single dose 30 mg/kg, 24 h).

In the case of `C=CC(=O)N1CCN2C(=O)c3cc(Cl)c(-c4ccc(F)c5sc(N)nc45)c(Cl)c3OCC[C@H]2C1` (atropisomer, axis not shown) [Example 1, (13aS)-9-(2-Amino-7-fluoro-1,3-benzothiazol-4-yl)-8,10-dichloro-2-prop-2-enoyl-1,3,4,12,13,13a-hexahydropyrazino[2,1-d][1,5]benzoxazocin-6-one], the IC50 was determined as 45 nM in experiment [1]; 303 nM in [2]; 250 nM in experiment [3]; 3610 nM in [4]; 1630 nM in [5]; 5840 nM in experiment [6]. Also, the IC50 in [7] is 1810 nM; in experiment [8] it was > 10000 nM; in experiment [9] (setting [11]) it was > 10000 nM. In addition, the inhibition at 10 µM in experiment [1] came out at 98.2%; in [2], 89.9%; in experiment [3] it was 60.8%; in experiment [4] it was 78.6%; in [5] it was 51.9%; in experiment [6] it was 64.6%. The inhibition at 10 µM in experiment [7] was 68.8%; in experiment [8], 35%; in experiment [9] (setting [12]), 19.1%.

Regarding `C=CC(=O)N1CCN2C(=O)c3cc(F)c(-c4ccc(F)c5sc(N)c(C#N)c45)c(Cl)c3OCC[C@H]2C1` [Example 35, 4-[(13aS)-10-Chloro-8-fluoro-6-oxo-2-prop-2-enoyl-1,3,4,12,13,13a-hexahydropyrazino[2,1-d][1,5]benzoxazocin-9-yl]-2-amino-7-fluoro-benzothiophene-3-carbonitrile], the 50% inhibitory concentration (IC50) is 24 nM in [1]; 173 nM in [2]; 330 nM in [3]; > 10000 nM in [4]; 1550 nM in experiment [5]; 7970 nM in experiment [6]. Moreover, the values for the concentration for half-maximal inhibition (IC50) in experiment [7], in [8] and in experiment [9] (setting [11]) were 3540 nM, > 10000 nM and > 10000 nM, respectively. In addition, the inhibition at 10 µM worked out at 98% in [1]; 96.6% in experiment [2]; 64.2% in [3]; 83.1% in [4]; 56.7% in experiment [5]; 68.3% in [6]. In addition, the inhibition at 10 µM in experiment [7] amounted to 86.3%; in [8] it was 44.7%; in experiment [9] (A549, 96 h) it was 31.6%. Also, the inhibition at 30 mg/kg in [10] (NCI-H358, 2 h) stood at 67.9%; in experiment [10] (NCI-H358, 4 h), 73.2%; in [10] (NCI-H358, 8 h), 82.6%; in [10] (NCI-H358, 12 h), 71.1%; in [10] (NCI-H358, 24 h) it was 65.2%. Besides, in [10] (8 h), the inhibition at 12.5 mg/kg was 82.2%. In [10] (8 h), the inhibition at 25 mg/kg came to 85.3%. Besides, the inhibition at 50 mg/kg in experiment [10] (8 h) came to 90.6%. In experiment [10] (8 h), the inhibition at 100 mg/kg stood at 88.9%.
